Here are results for 26 compounds from patent publication US20230416238A1, “N-[(1,3-BENZOXAZOL-2-YL)-HETEROCYCLE]AMIDE DERIVATIVES FOR THE TREATMENT AND PROPHYLAXIS OF HEPATITIS B VIRUS INFECTION” (Hoffmann-La Roche Inc., priority 2020, published 2023).

Format in all cases: cell-based
For one series, the system named is HBeAg. In words: PHH HBV natural infection assay, HBeAg (alphalisa). Conditions: Hepatitis B virus, Hepatocyte, read-out: HBeAg IC50. Put shortly: (§1)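 Primary human hepatocytes infected with HBV at 200 GE/cell plus 4% PEG8000 for 24 h, then sandwich-cultured 72 h in medium with 1% DMSO. Compound applied twice at 72-h intervals; supernatant HBsAg and HBeAg quantified by AlphaLISA.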

For another series, the system named is HBsAg. In words: PHH HBV natural infection assay, HBsAg (alphalisa). Conditions: Hepatitis B virus, Hepatocyte, read-out: HBsAg IC50. The gist of the method:
as §1

Series [1] in a line: Cytotoxicity in PHH natural infection assay (Cell Counting Kit-8). Conditions: HBV-infected primary human hepatocytes, CCK8. Put shortly: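 HBV-infected primary human hepatocytes (200 GE/cell, 4% PEG8000, 24 h), then sandwich-cultured 72 h. Cells dosed at varying concentrations for two 72-hour cycles, with medium refreshed. Cytotoxicity read by CCK-8 at end of treatment.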

Bounds are passed on as bounds.

As to `O=C(NC1CC2(C1)CN(c1nc3cc(Cl)ccc3o1)C2)c1ccc(S(=O)(=O)CC2CC2)o1` [Example 65, N-[2-(5-chloro-1,3-benzoxazol-2-yl)-2-azaspiro[3.3]heptan-6-yl]-5-(cyclopropylmethylsulfonyl)furan-2-carboxamide], the IC50 in the series with HBeAg is 1.07 µM; with HBsAg, 0.806 µM. Further, half-maximal cytotoxicity in series [1] (CC50 at 144 h) was put at 92.3 µM.

For `O=C(NC1CC2(C1)CN(c1nc3cc(Cl)ccc3o1)C2)c1ccnc(S(=O)(=O)C2CC2)c1` [Example 66, N-[2-(5-chloro-1,3-benzoxazol-2-yl)-2-azaspiro[3.3]heptan-6-yl]-2-cyclopropylsulfonyl-pyridine-4-carboxamide], the figures for the concentration for half-maximal inhibition (IC50) with HBeAg and with HBsAg were 0.608 µM and 0.781 µM, respectively. This compound also displayed a CC50 at 144 h in series [1] of 84.2 µM.

Take `CC1(NC(=O)c2ccc(S(C)(=O)=O)o2)CC2(CN(c3nc4cc(Cl)ccc4o3)C2)C1` [Example 67, N-[2-(5-chloro-1,3-benzoxazol-2-yl)-6-methyl-2-azaspiro[3.3]heptan-6-yl]-5-methylsulfonyl-furan-2-carboxamide]: the half-maximal inhibitory concentration (IC50) with HBeAg was determined as 2.13 µM; in the series on HBsAg it was 1.77 µM. This compound registered a half-maximal cytotoxic concentration (CC50) at 144 h in series [1] of more than 100 µM.

As for `CC1(NC(=O)c2ccnc(C(F)(F)F)c2)CC2(CN(c3nc4cc(Cl)ccc4o3)C2)C1` [Example 68, N-[2-(5-chloro-1,3-benzoxazol-2-yl)-6-methyl-2-azaspiro[3.3]heptan-6-yl]-2-(trifluoromethyl)pyridine-4-carboxamide], the results for the IC50 in the series with HBeAg and with HBsAg were 4.69 µM and 4.35 µM, respectively. Besides, in series [1], the CC50 at 144 h was 86.9 µM.

In the case of `O=C(NC1CCC2(C1)CN(c1nc3cc(Cl)ccc3o1)C2)c1ccc(C(F)(F)F)o1` (stereo not drawn) [Example 69, N-[2-(5-chloro-1,3-benzoxazol-2-yl)-2-azaspiro[3.4]octan-6-yl]-5-(trifluoromethyl)furan-2-carboxamide], the IC50 worked out at 4.01 µM in the series on HBeAg and 4.41 µM in the series with HBsAg. The compound also yielded a CC50 at 144 h in series [1] of 83.2 µM.

Regarding `O=C(NC1CCC2(CC1)CN(c1nc3cc(Cl)ccc3o1)C2)c1ccc(C(F)(F)F)o1` [Example 70, N-[2-(5-chloro-1,3-benzoxazol-2-yl)-2-azaspiro[3.5]nonan-7-yl]-5-(trifluoromethyl)furan-2-carboxamide], the concentration for half-maximal inhibition (IC50) was 2.96 µM in the series on HBeAg and 6.09 µM with HBsAg. For the same compound, the CC50 at 144 h in series [1] is more than 100 µM.

`O=C(NC1CC2(CCN(c3nc4cc(Cl)ccc4o3)C2)C1)C1CCS(=O)(=O)C1` (stereo not drawn) [Example 71, N-[6-(5-chloro-1,3-benzoxazol-2-yl)-6-azaspiro[3.4]octan-2-yl]-1,1-dioxo-thiolane-3-carboxamide]: the IC50 stood at 5.96 µM with HBeAg and 8.21 µM in the series with HBsAg. This compound returned a cytotoxic concentration (CC50) at 144 h in series [1] of 94.1 µM.

For `O=C(NC1CC2(CCN(c3nc4cc(Cl)ccc4o3)C2)C1)c1ccc(C(F)(F)F)o1` (stereo not drawn) [Example 72, N-[6-(5-chloro-1,3-benzoxazol-2-yl)-6-azaspiro[3.4]octan-2-yl]-5-(trifluoromethyl)furan-2-carboxamide], the IC50 in the series with HBeAg was 4.36 µM; in the series on HBsAg it was 7.9 µM. This compound also came in with a CC50 at 144 h in series [1] of 81.4 µM.

For `O=C(NC1CC2(CCN(c3nc4ccc(Cl)cc4o3)C2)C1)C1CCS(=O)(=O)C1` (stereo not drawn) [Example 73, N-[6-(6-chloro-1,3-benzoxazol-2-yl)-6-azaspiro[3.4]octan-2-yl]-1,1-dioxo-thiolane-3-carboxamide], the 50% inhibitory concentration (IC50) amounted to 3.05 µM with HBeAg and 6.32 µM with HBsAg. In series [1], this compound had a CC50 at 144 h of more than 100 µM.

In the case of `O=C(NC1CCC2(CCN(c3nc4cc(Cl)ccc4o3)C2)C1)C1CCS(=O)(=O)C1` (stereo not drawn) [Example 74, N-[2-(5-chloro-1,3-benzoxazol-2-yl)-2-azaspiro[4.4]nonan-8-yl]-1,1-dioxo-thiolane-3-carboxamide], the concentration for half-maximal inhibition (IC50) in the series with HBeAg stood at 3.73 µM; in the series with HBsAg, 4.33 µM. In series [1], this compound displayed a CC50 at 144 h of more than 100 µM.

Regarding `O=C(NC1CCC2(CCN(c3nc4cc(Cl)ccc4o3)C2)C1)c1ccc(C(F)(F)F)o1` (stereo not drawn) [Example 75, N-[2-(5-chloro-1,3-benzoxazol-2-yl)-2-azaspiro[4.4]nonan-8-yl]-5-(trifluoromethyl)furan-2-carboxamide], the 50% inhibitory concentration (IC50) in the series on HBeAg was determined as 7.81 µM; with HBsAg, 8.28 µM. The same compound yielded a half-maximal cytotoxic concentration (CC50) at 144 h in series [1] of 91.2 µM.

On to `O=C(NC1CC2(CCN(c3nc4cc(Cl)ccc4o3)CC2)C1)C1CCS(=O)(=O)C1` (stereo not drawn) [Example 76, N-[7-(5-chloro-1,3-benzoxazol-2-yl)-7-azaspiro[3.5]nonan-2-yl]-1,1-dioxo-thiolane-3-carboxamide], for which the half-maximal inhibitory concentration (IC50) in the series with HBeAg worked out at 2.27 µM; in the series on HBsAg, 2.26 µM. The CC50 at 144 h in series [1] was more than 100 µM.

As for `O=C(NC1CC2(CCN(c3nc4cc(Cl)ccc4o3)CC2)C1)c1ccc(C(F)(F)F)o1` [Example 77, N-[7-(5-chloro-1,3-benzoxazol-2-yl)-7-azaspiro[3.5]nonan-2-yl]-5-(trifluoromethyl)furan-2-carboxamide], the values for the half-maximal inhibitory concentration (IC50) in the series on HBeAg and in the series with HBsAg were 2.98 µM and 5.04 µM, respectively. Further, the CC50 at 144 h in series [1] was more than 100 µM.

As to `CC(C)(C)C(=O)NC1CCC2(CC1)CCN(c1nc3cc(Cl)ccc3o1)CC2` [Example 78, N-[3-(5-chloro-1,3-benzoxazol-2-yl)-3-azaspiro[5.5]undecan-9-yl]-2,2-dimethyl-propanamide], the IC50 turned out to be 1.2 µM in the series on HBeAg and 1.47 µM in the series with HBsAg. This compound had a 50% cytotoxic concentration (CC50) at 144 h in series [1] of 57.9 µM.

Take `CC(C)C(=O)NC1CCC2(CC1)CCN(c1nc3cc(Cl)ccc3o1)CC2` [Example 79, N-[3-(5-chloro-1,3-benzoxazol-2-yl)-3-azaspiro[5.5]undecan-9-yl]-2-methyl-propanamide]: the IC50 came out at 11.6 µM with HBeAg and 8.84 µM in the series on HBsAg. In addition, the CC50 at 144 h in series [1] was more than 100 µM.

With `CC(C)CC(=O)NC1CCC2(CC1)CCN(c1nc3cc(Cl)ccc3o1)CC2` [Example 80, N-[3-(5-chloro-1,3-benzoxazol-2-yl)-3-azaspiro[5.5]undecan-9-yl]-3-methyl-butanamide], the IC50 with HBeAg was 2.79 µM; in the series on HBsAg, 2.7 µM. In series [1], the half-maximal cytotoxic concentration (CC50) at 144 h was more than 100 µM.

Turning to `CS(=O)(=O)CC(=O)NC1CCC2(CC1)CCN(c1nc3cc(Cl)ccc3o1)CC2` [Example 81, N-[3-(5-chloro-1,3-benzoxazol-2-yl)-3-azaspiro[5.5]undecan-9-yl]-2-methylsulfonyl-acetamide], the IC50 in the series with HBeAg was 2.28 µM; in the series with HBsAg, 3.49 µM. The cytotoxic concentration (CC50) at 144 h in series [1] amounted to 67.3 µM.

With `NS(=O)(=O)CCC(=O)NC1CCC2(CC1)CCN(c1nc3cc(Cl)ccc3o1)CC2` [Example 82, N-[3-(5-chloro-1,3-benzoxazol-2-yl)-3-azaspiro[5.5]undecan-9-yl]-3-sulfamoyl-propanamide], the IC50 in the series on HBeAg amounted to 2.3 µM; in the series on HBsAg, 3.09 µM. In series [1], this compound displayed a 50% cytotoxic concentration (CC50) at 144 h of 76.3 µM.

In the case of `CS(=O)(=O)CCC(=O)NC1CCC2(CC1)CCN(c1nc3cc(Cl)ccc3o1)CC2` [Example 83, N-[3-(5-chloro-1,3-benzoxazol-2-yl)-3-azaspiro[5.5]undecan-9-yl]-3-methylsulfonyl-propanamide], the figures for the half-inhibitory concentration (IC50) with HBeAg and in the series on HBsAg were 1.79 µM and 2.49 µM, respectively. In series [1], this compound returned a cytotoxic concentration (CC50) at 144 h of 98.6 µM.

In the case of `O=C(CC1CCOC1)NC1CCC2(CC1)CCN(c1nc3cc(Cl)ccc3o1)CC2` (stereo not drawn) [Example 84, N-[3-(5-chloro-1,3-benzoxazol-2-yl)-3-azaspiro[5.5]undecan-9-yl]-2-tetrahydrofuran-3-yl-acetamide], the IC50 in the series on HBeAg came out at 1.37 µM; with HBsAg, 2.02 µM. The same compound returned a CC50 at 144 h in series [1] of 58.6 µM.

`O=C(NC1CCC2(CC1)CCN(c1nc3cc(Cl)ccc3o1)CC2)C1COC1` [Example 85, N-[3-(5-chloro-1,3-benzoxazol-2-yl)-3-azaspiro[5.5]undecan-9-yl]oxetane-3-carboxamide]: the IC50 worked out at 6.13 µM in the series with HBeAg and 8.75 µM with HBsAg. This compound displayed a CC50 at 144 h in series [1] of 70.9 µM.

Consider `O=C(NC1CCC2(CC1)CCN(c1nc3cc(Cl)ccc3o1)CC2)C1CCOC1` (stereo not drawn) [Example 86, N-[3-(5-chloro-1,3-benzoxazol-2-yl)-3-azaspiro[5.5]undecan-9-yl]tetrahydrofuran-3-carboxamide], for which the IC50 in the series with HBeAg was 2.8 µM; in the series with HBsAg it was 2.89 µM. This compound came in with a half-maximal cytotoxic concentration (CC50) at 144 h in series [1] of 82.7 µM.

Consider `CC1(C(=O)NC2CCC3(CC2)CCN(c2nc4cc(Cl)ccc4o2)CC3)CCSCC1` [Example 87, N-[3-(5-chloro-1,3-benzoxazol-2-yl)-3-azaspiro[5.5]undecan-9-yl]-4-methyl-tetrahydrothiopyran-4-carboxamide], for which the concentration for half-maximal inhibition (IC50) came to 1.13 µM with HBeAg and 1.43 µM in the series on HBsAg. The same compound yielded a CC50 at 144 h in series [1] of more than 100 µM.

Turning to `O=C(NC1CCC2(CC1)CCN(c1nc3cc(Cl)ccc3o1)CC2)C1CS(=O)(=O)C1` [Example 88, N-[3-(5-chloro-1,3-benzoxazol-2-yl)-3-azaspiro[5.5]undecan-9-yl]-1,1-dioxo-thietane-3-carboxamide], the IC50 was 1.25 µM with HBeAg and 1.52 µM in the series on HBsAg. The 50% cytotoxic concentration (CC50) at 144 h in series [1] is 28.9 µM.

`O=C(NC1CCC2(CC1)CCN(c1nc3ccc(Cl)cc3o1)CC2)C1CS(=O)(=O)C1` [Example 89, N-[3-(6-chloro-1,3-benzoxazol-2-yl)-3-azaspiro[5.5]undecan-9-yl]-1,1-dioxo-thietane-3-carboxamide]: the results for the IC50 with HBeAg and in the series on HBsAg were 3.93 µM and 6.76 µM, respectively. For the same compound, half-maximal cytotoxicity in series [1] (CC50 at 144 h) was put at 88.1 µM.

With `O=C(NC1CCC2(CC1)CCN(c1nc3cc(Cl)ccc3o1)CC2)C1CCS(=O)(=O)C1` (stereo not drawn) [Example 90, N-[3-(5-chloro-1,3-benzoxazol-2-yl)-3-azaspiro[5.5]undecan-9-yl]-1,1-dioxo-thiolane-3-carboxamide], the IC50 in the series with HBeAg was determined as 1.08 µM; with HBsAg, 1.35 µM. Further, the midpoint of cytotoxicity in series [1], the CC50 at 144 h, lay at 73.9 µM.
